Results on 2 molecules are retold here after article PMC12019328, “Discovery of an ApoE4-targeted small-molecule SirT1 enhancer for the treatment of Alzheimer’s disease” (Scientific Reports, 2025).

Test [1] has as its system SirT1 protein. As to the kind of experiment: SirT1 protein levels in hippocampi of ApoE4-TR:5xFAD mice. The class given is in vivo. To be noted: 56 days, vs vehicle, not statistically significant. The protocol: The active (-) enantiomer, DDL-218, underwent efficacy testing in ApoE4-TR:5xFAD mice[27] that were 6-7.5 months old at the start of treatment. ApoE4-TR:5xFAD male and female mice received either 20 mg/Kg DDL-218 BID (~ 8- to10-hour interval; total daily dose of 40 mkd) on weekdays and a single 40 mg/Kg dose on weekends (n = 12) or vehicle-only (n = 11); 8 C57BL/6 mice received vehicle-only as behavioral controls. Dosing was by the oral route and by oral feeding using a pipette as previously described, not gavage, as it is safer for repeated oral dosing than gavage. The dose of 20 mg/kg BID (40 mkd) was selected based on findings from PK analysis and was the highest feasible in the formulation used for oral feeding (compound is first solubilized in water, then mixed strawberry syrup diluted in water, for a final vehicle that is 25% syrup and 75% water). The final concentration of DDL-218 was chosen to deliver 20 mg/Kg in a volume of 10–20 µL (adjusted to the weight of each mouse). Mice were treated for 56 days (8 weeks); in week 7, mice underwent Barnes maze testing[29] as described below.
On Day 56, mice were euthanized 2 h after the a.m. dose by pentobarbital over-anesthesia and cardiac puncture for the collection of blood in EDTA tubes on ice for the isolation of plasma by centrifugation at 3,000 x g for 10 min at 4 °C. Mice were perfused with saline at 5 ml/min. […]

Test [2] addresses T1, protein arginine methyltransferase (PRMT) (Homo sapiens, UniProt Q86X55).
T1 construct: proteins from human neuroblastoma SH-SY5Y; endogenous in cells; host or cells: SH-SY5Y human neuroblastoma cell lysate
T1 sequence (Q86X55 1-608): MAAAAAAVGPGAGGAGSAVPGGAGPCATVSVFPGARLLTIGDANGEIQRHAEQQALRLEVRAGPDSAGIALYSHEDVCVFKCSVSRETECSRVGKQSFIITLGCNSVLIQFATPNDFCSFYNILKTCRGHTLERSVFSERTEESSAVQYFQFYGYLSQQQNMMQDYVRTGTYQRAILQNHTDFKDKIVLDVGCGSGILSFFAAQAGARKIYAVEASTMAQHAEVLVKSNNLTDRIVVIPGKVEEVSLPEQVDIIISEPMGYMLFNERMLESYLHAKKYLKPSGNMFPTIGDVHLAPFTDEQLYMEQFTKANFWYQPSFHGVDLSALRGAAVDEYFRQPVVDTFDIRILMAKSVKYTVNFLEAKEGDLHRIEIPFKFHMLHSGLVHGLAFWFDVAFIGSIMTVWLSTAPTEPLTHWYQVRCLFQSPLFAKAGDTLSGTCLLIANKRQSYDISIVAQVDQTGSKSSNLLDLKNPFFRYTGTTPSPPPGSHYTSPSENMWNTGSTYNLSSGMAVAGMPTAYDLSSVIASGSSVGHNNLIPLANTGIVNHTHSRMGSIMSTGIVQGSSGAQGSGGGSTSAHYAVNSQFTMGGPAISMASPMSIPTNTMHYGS
As to the kind of experiment: Affinity purification and STRING analysis-based proteomics with SH-SY5Y cell lysates. The format is binding. To be noted: compound clicked to agarose magnetic beads. As to the method:
To assist in identification of possible protein interactions of our SirT1 enhancers, affinity purification and STRING analysis-based proteomics was used, as described in Supplementary Methods. […] To assess effects of various PRMTs 1, 4, 5, 7 and 8 on SirT1, N2a-E4 cells were transfected with each of these PRMTs as described in Supplementary Methods. […]
supernatants were transferred to new tubes and lyophilized. Samples were reconstituted in 100 µL of 50/50/0.1 (Water/Acetonitrile/Formic Acid) prior to analysis via liquid chromatography-tandem mass spectrometry (LC-MS/MS).
Normalized chromatographic peak areas was plotted at each time point and the half-life (T1/2) of compound in liver microsomes was determined by using the trendline equation to calculate the time at which compound abundance was 50% of that at timepoint 0 (T0).
Kinetic solubility was assessed by separately diluting a test compound solution (10 mM, 100% DMSO) into the aqueous buffer (PBS pH 7.4) and DMSO at 100 μM, 100 μL total volume.
The solutions were then incubated at 37°C for 90 min and centrifuged (16000xg, 5 min). An aliquot (50 µL) of each supernatant was analyzed by LC-MS/MS.
Five standard concentrations (100, 10, 1, 0.1, and 0, DMSO) in duplicates were incubated at 37°C for 90 min and centrifuged (16000xg, 5 min). Aliquots (50 µL) of supernatant were analyzed by LC-MS/MS to create the standard curve.
Table S2. […]

Turning to `CC(N)C(=O)OC(C)(C)Cc1ccncc1` (centres unmarked) [DDL-218], the “increase of mean SirT1 protein levels in hippocampi” value in test [1] was ~ 20%.
As for `C#Cc1ccc(CC(C)(C)NC(=O)[C@H](C)N)cc1` [DDL-220], the “protein interaction found by affinity purification” value in test [2] is “a protein arginine methyltransferase (PRMT) interacts with DDL-220”.
